“And” between values parts separate entries of the source, which are not always exact repeats. Identical values can stand only once. Toxic doses and inconclusive results are not listed.
Test system: L1210 leukemia ip in BDF1 mice, survival T/C
Assay: NCI In Vivo Anticancer Drug Screen. Data for tumor model L1210 Leukemia (intraperitoneal) in B6D2F1 (BDF1) mice
Settings: endpoint: mean survival time, higher = longer survival
Method in brief: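 In this screen, tumor-bearing mice given compound are compared to those given vehicle, and their survival values are reported as a treated-to-control quotient.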

[1] = dose: 100.0 mg/kg/injection, schedule: Q01DX001 (ip), vehicle: Klucel (hydroxypropylcellulose) (HPC)
[2] = dose: 200.0 mg/kg/injection, schedule: Q01DX001 (ip), vehicle: Klucel (hydroxypropylcellulose) (HPC)
[3] = dose: 400.0 mg/kg/injection, schedule: Q01DX001 (ip), vehicle: Klucel (hydroxypropylcellulose) (HPC)
[4] = dose: 400.0 mg/kg/injection, schedule: Q04DX003 (ip), vehicle: saline
[5] = dose: 50.0 mg/kg/injection, schedule: Q01DX Z (ip), vehicle: carboxymethylcellulose (CMC)
[6] = dose: 75.0 mg/kg/injection, schedule: Q01DX Z (ip), vehicle: carboxymethylcellulose (CMC)
[7] = dose: 100.0 mg/kg/injection, schedule: Q01DX001 (ip), vehicle: carboxymethylcellulose (CMC)
[8] = dose: 100.0 mg/kg/injection, schedule: Q01DX Z (ip), vehicle: carboxymethylcellulose (CMC)
[9] = dose: 200.0 mg/kg/injection, schedule: Q01DX001 (ip), vehicle: carboxymethylcellulose (CMC)
[10] = dose: 400.0 mg/kg/injection, schedule: Q01DX001 (ip), vehicle: carboxymethylcellulose (CMC)
[11] = dose: 100.0 mg/kg/injection, schedule: Q04DX003 (ip), vehicle: Klucel (hydroxypropylcellulose) (HPC)
[12] = dose: 200.0 mg/kg/injection, schedule: Q04DX003 (ip), vehicle: Klucel (hydroxypropylcellulose) (HPC)
[13] = dose: 400.0 mg/kg/injection, schedule: Q04DX003 (ip), vehicle: Klucel (hydroxypropylcellulose) (HPC)
[14] = dose: 100.0 mg/kg/injection, schedule: Q04DX002 (ip), vehicle: Klucel (hydroxypropylcellulose) (HPC)
[15] = dose: 200.0 mg/kg/injection, schedule: Q04DX002 (ip), vehicle: Klucel (hydroxypropylcellulose) (HPC)
[16] = dose: 400.0 mg/kg/injection, schedule: Q04DX002 (ip), vehicle: Klucel (hydroxypropylcellulose) (HPC)

For `NC(CO)C(O)c1ccc(-c2ccccc2)cc1` (stereo not drawn), the T/C (dose: 75.0 mg/kg/injection, schedule: Q04DX003 (ip), vehicle: Klucel (hydroxypropylcellulose) (HPC)) was 108 % of control, the T/C [1] was 94 % of control and the T/C (dose: 150.0 mg/kg/injection, schedule: Q04DX003 (ip), vehicle: Klucel (hydroxypropylcellulose) (HPC)) was 106 % of control. The T/C [2] was 92 % of control, the T/C (dose: 300.0 mg/kg/injection, schedule: Q04DX003 (ip), vehicle: Klucel (hydroxypropylcellulose) (HPC)) was 101 % of control and the T/C [3] was 92 % of control.
For `NC(=O)NOCC(N)C(=O)O` (stereo not drawn), the T/C (dose: 100.0 mg/kg/injection, schedule: Q04DX003 (ip), vehicle: saline) was 102 % of control, the T/C (dose: 200.0 mg/kg/injection, schedule: Q04DX003 (ip), vehicle: saline) was 102 % of control and the T/C [4] was 97 % of control.
With `CN1Cc2c(ccc3c2OCO3)[C@@H]2[C@H](O)Cc3cc4c(cc3[C@@H]21)OCO4` the T/C [5] was 102 % of control, the T/C [6] was 108 % of control and the T/C [7] was 102 % of control. For the same compound, the T/C [8] was 102 % of control, the T/C (dose: 100.0 mg/kg/injection, schedule: Q04DX003 (ip), vehicle: saline with Tween-80) was 101 % of control and the T/C (dose: 180.0 mg/kg/injection, schedule: Q04DX003 (ip), vehicle: Klucel (hydroxypropylcellulose) (HPC)) was 111 % of control. The T/C [9] was 113 % of control, the T/C (dose: 200.0 mg/kg/injection, schedule: Q04DX003 (ip), vehicle: saline with Tween-80) was 101 % of control and the T/C (dose: 266.0 mg/kg/injection, schedule: Q04DX003 (ip), vehicle: Klucel (hydroxypropylcellulose) (HPC)) was 98 % of control. For the same compound, the T/C (dose: 266.0 mg/kg/injection, schedule: Q04DX003 (ip), vehicle: saline) was 105 % of control, the T/C (dose: 300.0 mg/kg/injection, schedule: Q01DX Z (ip), vehicle: carboxymethylcellulose (CMC)) was 98 % of control and the T/C [10] was 102 % of control. The T/C (dose: 400.0 mg/kg/injection, schedule: Q04DX003 (ip), vehicle: saline with Tween-80) was 165 % of control, the T/C [4] was 111 % of control and the T/C (dose: 600.0 mg/kg/injection, schedule: Q04DX003 (ip), vehicle: Klucel (hydroxypropylcellulose) (HPC)) was 157 % of control.
`Cc1cccc(OS(=O)(=O)c2ccccc2[N+](=O)[O-])c1` was tested, and the T/C (dose: 100.0 mg/kg/injection, schedule: Q01DX009 (ip), vehicle: saline sonified) was 103 % of control, the T/C [11] was 93 % of control and the T/C [12] was 96 % of control. For the same compound, the T/C (dose: 400.0 mg/kg/injection, schedule: Q01DX009 (ip), vehicle: saline sonified) was 111 % of control and the T/C [13] was 90 % of control.
`CC(C)C(NC(=O)OCc1ccccc1)C(=O)O` (stereo not drawn) was tested, and the T/C (dose: 9.37 mg/kg/injection, schedule: Q01DX009 (ip), vehicle: saline) was 98 % of control, the T/C (dose: 18.75 mg/kg/injection, schedule: Q01DX009 (ip), vehicle: saline) was 93 % of control and the T/C (dose: 37.5 mg/kg/injection, schedule: Q01DX009 (ip), vehicle: saline) was 100 % of control. The T/C (dose: 37.5 mg/kg/injection, schedule: Q04DX003 (ip), vehicle: saline) was 103 % of control, the T/C (dose: 75.0 mg/kg/injection, schedule: Q01DX001 (ip), vehicle: saline) was 96 % of control and the T/C (dose: 75.0 mg/kg/injection, schedule: Q04DX003 (ip), vehicle: saline) was 101 % of control. For the same compound, the T/C (dose: 150.0 mg/kg/injection, schedule: Q01DX001 (ip), vehicle: saline) was 102 % of control.
For `Cc1ccc(S(=O)(=O)OCC2C(COS(=O)(=O)c3ccc(C)cc3)C3C4C5C2C2C3C4C52)cc1` (stereo not drawn), the T/C [14] was 98 % of control, the T/C [15] was 90 % of control and the T/C [16] was 94 % of control.
For `Cc1ccc(S(=O)(=O)ON2C(=O)c3cccc4cc([N+](=O)[O-])cc(c34)C2=O)cc1`, the T/C (dose: 100.0 mg/kg/injection, schedule: Q01DX001 (ip), vehicle: saline) was 95 % of control, the T/C (dose: 200.0 mg/kg/injection, schedule: Q01DX001 (ip), vehicle: saline) was 101 % of control and the T/C (dose: 400.0 mg/kg/injection, schedule: Q01DX001 (ip), vehicle: saline) was 104 % of control.
With `O=C(Nc1ccc(F)c(Cl)c1)Oc1ccc(OCc2ccccc2)cc1` the T/C [11] was 94 % of control, the T/C [12] was 94 % of control and the T/C [13] was 95 % of control.
In the case of `CCOC(=O)NNP(=O)(NNC(=O)OCC)c1ccccc1`, the T/C [7] is reported as 101 % of control, the T/C (dose: 100.0 mg/kg/injection, schedule: Q01DX009 (ip), vehicle: carboxymethylcellulose (CMC)) is reported as 94 % of control and the T/C (dose: 100.0 mg/kg/injection, schedule: Q04DX002 (ip), vehicle: carboxymethylcellulose (CMC)) is reported as 98 % of control. For the same compound, the T/C (dose: 100.0 mg/kg/injection, schedule: Q04DX003 (ip), vehicle: carboxymethylcellulose (CMC)) was 98 % of control, the T/C [9] was 104 % of control and the T/C (dose: 200.0 mg/kg/injection, schedule: Q01DX009 (ip), vehicle: carboxymethylcellulose (CMC)) was 94 % of control and 98 % of control. For the same compound, the T/C (dose: 200.0 mg/kg/injection, schedule: Q04DX002 (ip), vehicle: carboxymethylcellulose (CMC)) was 91 % of control, the T/C (dose: 200.0 mg/kg/injection, schedule: Q04DX003 (ip), vehicle: carboxymethylcellulose (CMC)) was 102 % of control and the T/C [10] was 92 % of control. For the same compound, the T/C (dose: 400.0 mg/kg/injection, schedule: Q01DX009 (ip), vehicle: carboxymethylcellulose (CMC)) was 108 % of control and 109 % of control, the T/C (dose: 400.0 mg/kg/injection, schedule: Q04DX002 (ip), vehicle: carboxymethylcellulose (CMC)) was 94 % of control and the T/C (dose: 400.0 mg/kg/injection, schedule: Q04DX003 (ip), vehicle: carboxymethylcellulose (CMC)) was 101 % of control.
With `CC(=O)Cc1cc(C)c(C(C)=O)c(O)c1C(C)=O` the T/C [11] was 103 % of control, the T/C [12] was 108 % of control and the T/C [13] was 105 % of control.
With `NCC(O)c1cccc(O)c1` (stereo not drawn) the T/C (dose: 50.0 mg/kg/injection, schedule: Q01DX001 (ip), vehicle: carboxymethylcellulose (CMC)) was 105 % of control, the T/C [7] was 94 % of control and the T/C [9] was 100 % of control. The T/C [10] was 100 % of control.
For `O=NN(CCCN(N=O)C(=O)Nc1c[nH]c(=O)[nH]c1=O)C(=O)Nc1c[nH]c(=O)[nH]c1=O`, the T/C [5] was 110 % of control, the T/C [6] was 110 % of control and the T/C [8] was 115 % of control. For the same compound, the T/C (dose: 150.0 mg/kg/injection, schedule: Q01DX Z (ip), vehicle: carboxymethylcellulose (CMC)) was 111 % of control and the T/C (dose: 200.0 mg/kg/injection, schedule: Q01DX Z (ip), vehicle: carboxymethylcellulose (CMC)) was 119 % of control.
`O=C1/C(=N/O)CCCc2ccccc21` was tested, and the T/C [7] was 103 % of control, the T/C [9] was 97 % of control and the T/C [10] was 103 % of control.
`CCC(=O)OC1C(C)OC(OC2C(C)OC(O[C@H]3[C@@H](CC=O)C[C@@H](C)[C@@H](O)/C=C/C=C/C[C@@H](C)OC(=O)C[C@@H](OC(=O)CC)[C@@H]3OC)C(O)C2N(C)C)CC1(C)O` (stereo partly drawn) was tested, and the T/C (dose: 100.0 mg/kg/injection, schedule: Q01DX009 (ip), vehicle: Klucel (hydroxypropylcellulose) (HPC)) was 96 % of control, the T/C [11] was 104 % of control and the T/C (dose: 200.0 mg/kg/injection, schedule: Q01DX009 (ip), vehicle: Klucel (hydroxypropylcellulose) (HPC)) was 93 % of control. For the same compound, the T/C [12] was 95 % of control, the T/C (dose: 400.0 mg/kg/injection, schedule: Q01DX009 (ip), vehicle: Klucel (hydroxypropylcellulose) (HPC)) was 98 % of control and the T/C [13] was 91 % of control.
With `CC(=O)c1ccc(OC(=O)Oc2ccc(C(C)=O)cc2)cc1` the T/C [7] was 93 % of control, the T/C [9] was 101 % of control and the T/C [10] was 93 % of control.
For `CC1(c2ccccc2)SC(C)(c2ccccc2)SC(c2ccccc2)(c2ccccc2)S1` (stereo not drawn), the T/C [1] was 100 % of control, the T/C [2] was 98 % of control and the T/C [3] was 91 % of control.
For `CC12CCC(=O)OC1(C)OC(=O)CC2` (stereo not drawn), the T/C (dose: 100.0 mg/kg/injection, schedule: Q01DX009 (ip), vehicle: saline) was 94 % of control, the T/C (dose: 200.0 mg/kg/injection, schedule: Q01DX009 (ip), vehicle: saline) was 100 % of control and the T/C (dose: 400.0 mg/kg/injection, schedule: Q01DX009 (ip), vehicle: saline) was 95 % of control.
With `CCOC(=O)c1nnn(-c2cccnc2)c1-c1ccc([N+](=O)[O-])cc1` the T/C [14] was 111 % of control, the T/C [15] was 101 % of control and the T/C [16] was 105 % of control.
With `CNC1=CC(=O)C1(F)F` the T/C (dose: 12.5 mg/kg/injection, schedule: Q01DX001 (ip), vehicle: Klucel (hydroxypropylcellulose) (HPC)) was 101 % of control, the T/C (dose: 25.0 mg/kg/injection, schedule: Q01DX001 (ip), vehicle: Klucel (hydroxypropylcellulose) (HPC)) was 108 % of control and the T/C (dose: 50.0 mg/kg/injection, schedule: Q01DX001 (ip), vehicle: Klucel (hydroxypropylcellulose) (HPC)) was 108 % of control.
